target: KRasG12C (M1-K169, biotinylated on the N-terminus) (Homo sapiens (Human), UniProt P01116, G12C); test: Covalent competition assay: scintillation proximity assay (SPA) quantifying covalent modification of KRASG12C; assay type: binding; settings: competition with radiolabeled covalent probe (Compound B/Compound A), 2 hours incubation, 10 nM KRasG12C
Method: Cells were harvested by centrifugation and frozen at −80° C. until further processing. […] The cells were lysed by 4 passages through an Avestin Emulsiflex at about 20000 psi and insoluble debris removed by centrifugation and filtered through a 0.45 µm Durapore membrane (Millipore). […] Eluted protein fractions were analyzed by Novex NuPage 4-12% PAGE. […] The protein in the flow through was subjected to a final polishing step on a HiLoad 16/60 Superdex 200 prep grade size-exclusion column pre-equilibrated with SEC-buffer (20 mM HEPES pH 7.4, 150 mM NaCl, 5 mM MgCl2, 1 µM GDP). Positive fractions were determined by PAGE (Novex NuPage 4-12% BisTris) analysis.
A scintillation proximity assay (SPA) was used to determine the potency of the compounds.
This assay measures the ability of the test compound to compete with the radiolabeled covalent probe for binding to and covalently modify KRASG12C.
(see above for synthesis of Compound A and Compound B). A serial dilution of the compounds to be tested is mixed with a fixed concentration of the radiolabeled covalent probe before incubation with KRASG12C:GDP as described below. KRASG12C can either be bound by the radiolabeled covalent probe (Compound B), resulting in light being emitted from the beads, or bound by covalent test compound preventing signal generation.
A 1/20 isotopic dilution of labeled (Compound B) and non-labeled covalent (Compound A) probe was prepared and added to all wells on the plate. The reaction was started by addition of KRasG12C (M1-K169, biotinylated on the N-terminus) to the compounds and incubated for 2 hours with continuous agitation allowing for full modification of KRasG12C with probe or test compounds. Final concentrations in an assay volume of 40 μL were 10 nM KRasG12C, 25 nM radio-ligand and 475 nM unlabelled ligand. The assay buffer contained 20 mM Tris-HCl pH 7.5 (Invitrogen), 150 mM NaCl (Sigma Aldrich), 0.1 mM MgCl2 (Sigma Aldrich), and 0.01% Tween-20 (Sigma Aldrich). Following addition of 50 μL of a 400 μg/mL suspension of streptavidin-coated YSi beads (Perkin Elmer), plates were incubated for a further 30 min with continuous agitation before reading the plates on a scintillation counter (Topcount NXT 384 (Packard).
Evaluation was carried out using assay data analysis software (such as the standard Novartis in-house Helios software application, Novartis Institutes for BioMedical Research, unpublished) using the methods described in Formenko et al., Robust Regression for high-throughput screening, Computer Methods and Programs in Biomedicine, 2006, 82, 31-37. Following normalization of activity values for the wells to % inhibition (% inhibition=[(high control−sample)/(high control−low control)]×100), IC50 fitting was carried out from the duplicate determinations present on each plate according to Formenko et al., 2006.
Evaluation can also be carried out using commercially available software which is designed to derive IC50 values using 4-parameter fits (e.g. GraphPad Prism, XL fit).

Compound	IC50
C=CC(=O)N1CC2(CC(n3nc(N4CCn5ccnc5C4)c(-c4c(Cl)c(C)cc5[nH]ncc45)c3C)C2)C1 (single isomer, unassigned) [Example 19b, 1-(6-(4-(5-chloro-6-methyl-1H-indazol-4-yl)-3-(5,6-dihydroimidazo[1,2-a]pyrazin-7(8H)-yl)-5-methyl-1H-pyrazol-1-yl)-2-azaspiro[3.3]heptan-2-yl)prop-2-en-1-one]	34700 nM
C=CC(=O)N1CC2(CC(n3nc(N4CCN(C(C)=O)C5(CCC5)C4)c(-c4c(Cl)c(C)cc5[nH]ncc45)c3C)C2)C1 (single isomer, unassigned) [Example 20a, 1-(6-(3-(5-acetyl-5,8-diazaspiro[3.5]nonan-8-yl)-4-(5-chloro-6-methyl-1H-indazol-4-yl)-5-methyl-1H-pyrazol-1-yl)-2-azaspiro[3.3]heptan-2-yl)prop-2-en-1-one]	301 nM
C=CC(=O)N1CC2(CC(n3nc(N4CCN(C(C)=O)C5(CCC5)C4)c(-c4c(Cl)c(C)cc5[nH]ncc45)c3C)C2)C1 (single isomer, unassigned) [Example 20b, 1-(6-(3-(5-acetyl-5,8-diazaspiro[3.5]nonan-8-yl)-4-(5-chloro-6-methyl-1H-indazol-4-yl)-5-methyl-1H-pyrazol-1-yl)-2-azaspiro[3.3]heptan-2-yl)prop-2-en-1-one]	38300 nM
C=CC(=O)N1CC2(CC(n3nc(N4CCN(C(C)=O)CC45CCC5)c(-c4c(Cl)c(C)cc5[nH]ncc45)c3C)C2)C1 (single isomer, unassigned) [Example 21a, 1-(6-(3-(8-acetyl-5,8-diazaspiro[3.5]nonan-5-yl)-4-(5-chloro-6-methyl-1H-indazol-4-yl)-5-methyl-1H-pyrazol-1-yl)-2-azaspiro[3.3]heptan-2-yl)prop-2-en-1-one]	11100 nM
C=CC(=O)N1CC2(CC(n3nc(N4CCN(C(C)=O)CC45CCC5)c(-c4c(Cl)c(C)cc5[nH]ncc45)c3C)C2)C1 (single isomer, unassigned) [Example 21b, 1-(6-(3-(8-acetyl-5,8-diazaspiro[3.5]nonan-5-yl)-4-(5-chloro-6-methyl-1H-indazol-4-yl)-5-methyl-1H-pyrazol-1-yl)-2-azaspiro[3.3]heptan-2-yl)prop-2-en-1-one]	17 nM
C=CC(=O)N1CC2(CC(n3nc(N4CCOCC4(C)C)c(-c4c(Cl)c(C)cc5[nH]ncc45)c3C)C2)C1 (single isomer, unassigned) [Example 22a, 1-(6-(4-(5-chloro-6-methyl-1H-indazol-4-yl)-3-(3,3-dimethylmorpholino)-5-methyl-1H-pyrazol-1-yl)-2-azaspiro[3.3]heptan-2-yl)prop-2-en-1-one]	> 50000 nM
C=CC(=O)N1CC2(CC(n3nc(N4CCOCC4(C)C)c(-c4c(Cl)c(C)cc5[nH]ncc45)c3C)C2)C1 (single isomer, unassigned) [Example 22b, 1-(6-(4-(5-chloro-6-methyl-1H-indazol-4-yl)-3-(3,3-dimethylmorpholino)-5-methyl-1H-pyrazol-1-yl)-2-azaspiro[3.3]heptan-2-yl)prop-2-en-1-one]	113 nM
C=CC(=O)N1CC2(CC(n3nc(N4CCn5ccnc5C4(C)C)c(-c4c(Cl)c(C)cc5[nH]ncc45)c3C)C2)C1 (single isomer, unassigned) [Example 23a, 1-(6-(4-(5-chloro-6-methyl-1H-indazol-4-yl)-3-(8,8-dimethyl-5,6-dihydroimidazo[1,2-a]pyrazin-7(8H)-yl)-5-methyl-1H-pyrazol-1-yl)-2-azaspiro[3.3]heptan-2-yl)prop-2-en-1-one]	> 50000 nM
C=CC(=O)N1CC2(CC(n3nc(N4CCn5ccnc5C4(C)C)c(-c4c(Cl)c(C)cc5[nH]ncc45)c3C)C2)C1 (single isomer, unassigned) [Example 23b, 1-(6-(4-(5-chloro-6-methyl-1H-indazol-4-yl)-3-(8,8-dimethyl-5,6-dihydroimidazo[1,2-a]pyrazin-7(8H)-yl)-5-methyl-1H-pyrazol-1-yl)-2-azaspiro[3.3]heptan-2-yl)prop-2-en-1-one]	634 nM
C=CC(=O)N1CC2(CC(n3nc(N4CCN(C(C)=O)CC4(C)C)c(-c4c(Cl)c(C)cc5[nH]ncc45)c3C3CC3)C2)C1 (single isomer, unassigned) [Example 24a, 1-(6-(3-(4-acetyl-2,2-dimethylpiperazin-1-yl)-4-(5-chloro-6-methyl-1H-indazol-4-yl)-5-cyclopropyl-1H-pyrazol-1-yl)-2-azaspiro[3.3]heptan-2-yl)prop-2-en-1-one]	> 50000 nM
C=CC(=O)N1CC2(CC(n3nc(N4CCN(C(C)=O)CC4(C)C)c(-c4c(Cl)c(C)cc5[nH]ncc45)c3C3CC3)C2)C1 (single isomer, unassigned) [Example 24b, 1-(6-(3-(4-acetyl-2,2-dimethylpiperazin-1-yl)-4-(5-chloro-6-methyl-1H-indazol-4-yl)-5-cyclopropyl-1H-pyrazol-1-yl)-2-azaspiro[3.3]heptan-2-yl)prop-2-en-1-one]	167 nM
C=CC(=O)N1CC2(CC(n3nc(N4CCC5(CC4)CN(C(C)=O)CCO5)c(-c4c(Cl)c(C)cc5[nH]ncc45)c3C)C2)C1 (single isomer, unassigned) [Example 26a, 1-(6-(3-(4-acetyl-1-oxa-4,9-diazaspiro [5.5]undecan-9-yl)-4-(5-chloro-6-methyl-1H-indazol-4-yl)-5-methyl-1H-pyrazol-1-yl)-2-azaspiro[3.3]heptan-2-yl)prop-2-en-1-one]	11500 nM
C=CC(=O)N1CC2(CC(n3nc(N4CCC5(CC4)CN(C(C)=O)CCO5)c(-c4c(Cl)c(C)cc5[nH]ncc45)c3C)C2)C1 (single isomer, unassigned) [Example 26b, 1-(6-(3-(4-acetyl-1-oxa-4,9-diazaspiro [5.5]undecan-9-yl)-4-(5-chloro-6-methyl-1H-indazol-4-yl)-5-methyl-1H-pyrazol-1-yl)-2-azaspiro[3.3]heptan-2-yl)prop-2-en-1-one]	110 nM
C=CC(=O)N1CC2(CC(n3nc(N4CCC(C)(O)CC4(C)C)c(-c4c(Cl)c(C)cc5[nH]ncc45)c3C)C2)C1 (single isomer, unassigned) [Example 27a, 1-(6-(4-(5-chloro-6-methyl-1H-indazol-4-yl)-3-(4-hydroxy-2,2,4-trimethylpiperidin-1-yl)-5-methyl-1H-pyrazol-1-yl)-2-azaspiro[3.3]heptan-2-yl)prop-2-en-1-one]	2700 nM
C=CC(=O)N1CC2(CC(n3nc(N4CCC(C)(O)CC4(C)C)c(-c4c(Cl)c(C)cc5[nH]ncc45)c3C)C2)C1 (single isomer, unassigned) [Example 27b, 1-(6-(4-(5-chloro-6-methyl-1H-indazol-4-yl)-3-(4-hydroxy-2,2,4-trimethylpiperidin-1-yl)-5-methyl-1H-pyrazol-1-yl)-2-azaspiro[3.3]heptan-2-yl)prop-2-en-1-one]	24 nM
C=CC(=O)N1CC2(CC(n3nc(N4CCC(C)(O)CC4(C)C)c(-c4c(Cl)c(C)cc5[nH]ncc45)c3C)C2)C1 (single isomer, unassigned) [Example 28a, 1-(6-(4-(5-chloro-6-methyl-1H-indazol-4-yl)-3-(4-hydroxy-2,2,4-trimethylpiperidin-1-yl)-5-methyl-1H-pyrazol-1-yl)-2-azaspiro[3.3]heptan-2-yl)prop-2-en-1-one]	76 nM

Reference: patent US20240317721A1, “PYRAZOLYL DERIVATIVES AS INHIBITORS OF THE KRAS MUTANT PROTEIN” (NOVARTIS AG, priority 2021, published 2024)
